The source of these data is ChEMBL document CHEMBL1143561, “Virtual docking approaches to protein kinase B inhibition” (J Med Chem, 2005).

The test addresses RAC-alpha serine/threonine-protein kinase (Homo sapiens, UniProt P31749). In words: Inhibition of protein kinase B alpha (Akt1) in fluorescent enzymatic assay.

RAC-alpha serine/threonine-protein kinase, sequence (P31749 whole entry): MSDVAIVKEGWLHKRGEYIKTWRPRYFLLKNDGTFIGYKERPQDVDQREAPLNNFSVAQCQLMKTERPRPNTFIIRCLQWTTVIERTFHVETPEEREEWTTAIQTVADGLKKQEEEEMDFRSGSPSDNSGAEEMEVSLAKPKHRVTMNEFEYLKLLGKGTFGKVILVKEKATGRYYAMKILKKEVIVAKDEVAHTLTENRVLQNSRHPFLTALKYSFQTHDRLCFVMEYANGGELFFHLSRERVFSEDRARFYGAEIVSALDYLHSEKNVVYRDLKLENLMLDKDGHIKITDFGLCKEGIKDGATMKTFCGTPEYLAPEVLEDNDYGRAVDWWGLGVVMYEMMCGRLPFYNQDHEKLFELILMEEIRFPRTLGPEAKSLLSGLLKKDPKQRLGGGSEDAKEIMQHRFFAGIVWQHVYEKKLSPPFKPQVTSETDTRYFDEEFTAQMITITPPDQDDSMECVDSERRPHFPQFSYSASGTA

For `CC1=C(C#N)c2nc(N)c(C#N)c(C)c2/C1=C/c1ccc(-c2cccc(C(=O)O)c2)o1`, the IC50 is 60.2 µM.

For orientation: IC50 means the concentration that gives 50% inhibition.
